Laboratory results as given in US20060165683A1, “Methods and compositions for control of bone formation via modulation of sympathetic tone” (priority 2001, published 2006).
Entries after “also recorded” stand apart in the source; their conditions may differ.

B1: leptin: polypeptide hormone, product of the ob gene; human leptin (Sigma) infused ICV (protein)
chain: VPIQKVQDDTKTLIKTIVTRINDISHTQSVSAKQRVTGLDFIPGLHPILSLSKMDQTLAVYQQVLTSLPSQNVLQIANDLENLRDLLHLLAFSKSCSLPQTSGLQKPESLDGVLEASLYSTEVVALSRLQGSLQDILQQLDVSPEC

What was measured:
[1] = test system: wt mice; assay: Long-term isoproterenol treatment of wt mice; type: in vivo, mouse
Procedure: (§1) Wildtype (C57BL/6J) and mutant (C57BL/6J A^y/a, C57BL/6J ob/ob) mice were obtained from the Jackson laboratory and adrenal medullectomized mice from Harlan Tecklad laboratory. Dbh−/− mice were rescued as previously described (Thomas et al., 1998, Neurochem 70:2468-2476). Isoproterenol (Sigma) was injected intraperitoneally (ip) once daily for 6 weeks at 30 mg/kg (wt) or 3 mg/kg (ob/ob). Propranolol (Sigma) was added to the drinking water at a concentration of 0.5 g/l. For ICV infusion, a 28-gauge cannula (Brain infusion kit II, Alza) was implanted into the third ventricle as previously described infusing human leptin (Sigma) at 8 ng/hr or MT-II at 125 ng/hr (Phoenix Pharmaceuticals) for 28 days (see, e.g., Ducy et al., 2000, Cell 100: 197-207). The cannula was connected to an osmotic pump (Alza) placed in the dorsal subcutaneous space of the animal. For parabiosis longitudinal incisions were made in the skin and in the peritoneal cavity along one side on each mouse. Edges of the incisions were connected by suture to induce coelioanastomosis. Cross-circulation was quantified by injecting 1 ml/kg 0.25% Evans blue into the tail vein of one mouse of the parabiosed pair. After 30 min. blood was collected from both mice by retroorbital bleeding and the blood exchange rate was calculated according to standard techniques (see, e.g., Harris & Martin, 1984, Am J Physiol 247:R380-386). […] Two weeks after parabiosis a pump delivering leptin ICV in one animal of each pair was implanted. For GTG lesioning, 4-week-old C57BL/6J mice were given a single ip injection of either PBS or GTG (0.5 mg/g). For MSG lesioning, 2 day-old C57BL/6J pups were injected daily subcutaneously with either PBS or MSG (2 mg/g) for 10 days.
Histological analyses were performed on undecalcified sections stained by von Kossa and counterstained by von Gieson (see, e.g., Ducy et al., 2000, Cell 100:197-207). Static and dynamic histomorphometric analyses were performed according to standard protocols (see, e.g., Parfitt et al., 1987, J Bone Miner Res 6:595-610) using the Osteomeasure Analysis System (Osteometrics, Atlanta). Six to 12 animals were analyzed for each group. Statistical significance was assessed by Student's t test.
To address this point one month-old ob/ob mice were treated for 6 weeks with the β-adrenergic agonist isoproterenol or vehicle. […] To determine the role of the SNS in animals that have none of the metabolic and neurological abnormalities caused by leptin deficiency, this experiment was repeated in wt mice.

[2] = test system: primary osteoblasts; assay: Gene expression and apoptosis in primary osteoblasts; type: cell-based, mouse
Procedure: Primary osteoblast cultures were established as previously described (see, e.g., Ducy et al., 2000, Cell 100: 197-207) and maintained in αMEM/0.1 mg/ml ascorbic acid supplemented with 10% FBS. SaOS-2 were grown in MEM/10% FBS. For cAMP assay confluent cultures were incubated with serum free medium containing 100 μM IBMX (3-isobutyl-1-methylxanthine, Sigma) for 8 minutes before PBS, PTH(1-34) (Bachem), isoproterenol, norepinephrine, phenylephrine (Sigma) or propranolol were added for 5 min. Intracellular cAMP concentration was measured by immunoassay (R&D Systems). For gene expression analyses, primary osteoblasts were treated for 72 hours with appropriate drugs in 0.1% FBS. Hormone serum levels were quantified using immunoassays kits from Peninsula Laboratories (Insulin) or Alpco Diagnostics (leptin). Deoxypyridinoline cross-links and Creatinine were measured in morning urines using the Quidel kits. a1(I) leptin bioactivity was verified by cotransfection of 293 cells expressing ObRb with a STAT3-responsive-luc reporter construct, pSVβgal plasmid and a1(I) leptin expression vector or mock. Twenty-four hours later luciferase and β-galactosidase activities were measured. Data represents ratios of luciferase/β-galactosidase activities, and values are mean of 6 independent transfection experiments.
To elucidate the bases of the antiosteogenic effect of isoproterenol in vivo, osteoblast proliferation, gene expression and apoptosis were studied.

[3] = test system: A^y/a mice; assay: Leptin ICV infusion in A^y/a mice; type: in vivo, mouse
Procedure: as §1

[4] = test system: parabiosed ob/ob mice; assay: Cross circulation (parabiosis) between ob/ob mice with leptin ICV in one mouse of each pair; type: in vivo
Excerpt: Cross Circulation (Parabiosis) Procedure. Following anesthesia by standard procedures, the surgery is made under adequate anesthesia and aseptic techniques. A longitudinal incision is made along one side on each mouse and skin is loosened from connective tissue. The ventral edges of the incision are joined by suture. Abdominal cavity of each mouse is opened and connected to make coelio anastomosis. Finally, the dorsal edges of the skin incision are joined. Parabiosed mice are housed in separate cages subsequently. Mice used for this procedure are syngenic to avoid immune reactions. Bone histology and histomorphometry are performed at the end of the treatment period to determine bone mass.
To determine whether the signal(s) emanating from the brain and controlling bone formation was/were of humoral nature, cross circulation (parabiosis) experiments were performed between ob/ob mice. Four weeks after establishing and verifying the cross circulation, a pump delivering leptin ICV (8 ng/h) was installed in one mouse of each parabiosed pair. […] Body weight and bone histology of the ipsilateral and contralateral mouse of each pair was analyzed four weeks later, reasoning that if leptin was using humoral means to control body weight and bone mass, both mice in each pair should respond equally well to the leptin infusion.
as §1
The next question was whether the signal(s) emanating from the hypothalamic antiosteogenic network was/were of humoral or of neuronal nature. To that end, cross-circulation (parabiosis) experiments between ob/ob animals (that have no circulating leptin) were relied upon. […] Four weeks later the animals were sacrificed and analyzed.

[5] = primary osteoblasts, 72 hours, 0.1% FBS, Northern blot
[6] = contralateral parabiosed partner
[7] = ipsilateral mouse, 8 ng/h, four weeks

Molecule | expression of uncoupling protein 1 (Ucp1) in brown adipose tissue [1] | bone mass ([1]; 30 mg/kg ip once daily, 6 weeks) | body weight ([1]; 30 mg/kg, 6 weeks) | bone formation rate ([1]; 30 mg/kg, 6 weeks) | osteoblast number ([1]; 30 mg/kg, 6 weeks) | apoptosis: Caspase 3 expression and Annexin-V staining levels ([2]; isoproterenol-treated versus control osteoblasts) | expression of Cbfa1 [2, 5] | expression of a1(I) collagen [2, 5] | body weight ([3]; ICV infusion) | bone formation rate ([3]; long-term ICV infusion) | bone mass / bone volume ([3]; long-term ICV infusion) | body weight loss in the contralateral mouse [4, 6] | bone mass / bone volume of the contralateral mouse [4, 6] | body weight of the ob/ob mouse receiving leptin ICV [4, 7] | bone mass / bone volume of the ob/ob mouse receiving leptin ICV [4, 7] | leptin in plasma / serum (leakage into the general circulation) ([4]; parabiosed ob/ob mice after ICV infusion)
CC(C)NCC(O)c1ccc(O)c(O)c1 (stereo not shown) [isoproterenol] | increased | significantly decreased | without affecting | significantly decreased | significantly decreased | did not observe any change | decreased | decreased | – | – | – | – | – | – | – | –
B1 | – | – | – | – | – | – | – | – | without affecting | decrease | significant decrease; also recorded: decreased | never observed | never observed; also recorded: no modification | dropped considerably | dropped considerably; also recorded: dropped significantly | absence of measurable leptin
